Here are results for eight compounds from PubChem BioAssay (NCI).

Several values for one entry are separate records, joined by “and”; a condition that tells them apart may be missing. Equal entries are not always repeated.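 Grown in 96-well plates, cells were treated for 48 hours with each compound at five concentrations. Insufficient inhibition: endpoint recorded as highest concentration tested. GI50: concentration for 50% inhibition of growth. TGI: concentration producing complete growth inhibition.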

Among the test systems are SR leukemia; U251 CNS; COLO 205 colon; PC-3 prostate; TK-10 renal; SW-620 colon; SF-268 CNS; OVCAR-5 ovarian; HT29 colon; HCT-15 colon.
Common to all, as to assay: inhibition of tumour cell growth, NCI panel, 48 h

As for `Cc1ccccc1C1N=C2Oc3ccccc3C=C2C(=O)N1` (centres undefined), the GI50 in the test on SR leukemia is 14.5 µM; with U251 CNS it was 11.7 µM; with COLO 205 colon it was 1.46 µM; in the test with PC-3 prostate, 0.86 µM; in the test with TK-10 renal, 8.06 µM; in the test with SW-620 colon, 4.74 µM. Besides, the GI50 was 9.2 µM in the test with SF-268 CNS, 2.51 µM in the test on OVCAR-5 ovarian, 4.48 µM with HT29 colon and 2.05 µM in the test on HCT-15 colon. For the same compound, the TGI was greater than 88.3 µM in the test with SR leukemia; greater than 100 µM in the test with U251 CNS; 15 µM in the test with COLO 205 colon; greater than 100 µM in the test on PC-3 prostate; greater than 100 µM with TK-10 renal; greater than 100 µM with SW-620 colon. The TGI in the test with SF-268 CNS, with OVCAR-5 ovarian, with HT29 colon and in the test with HCT-15 colon was greater than 100 µM throughout.
In the case of `CS(=O)c1cc(=O)c2ccccc2s1` (centres undefined), the TGI in the test with SR leukemia was found to be 4.67 µM; with U251 CNS, 22.1 µM; in the test with COLO 205 colon, 4.65 µM; in the test with PC-3 prostate, 28.9 µM; in the test with TK-10 renal it was 12.7 µM; in the test on SW-620 colon, 4.2 µM. Besides, the TGI in the test on SF-268 CNS stood at 24.5 µM; with OVCAR-5 ovarian, 18.2 µM; in the test with HT29 colon, 12.9 µM; in the test with HCT-15 colon, 6.75 µM.
Take `Nc1ncnc2c1ncn2C1SC(CO)C(O)C1O` (centres undefined): the GI50 with SR leukemia is 12.5 µM; in the test with U251 CNS it was 27 µM; with COLO 205 colon, 33.3 µM; in the test on PC-3 prostate, 3.72 µM; in the test on TK-10 renal it was 60.9 µM; in the test on SW-620 colon, 17.5 µM. The GI50 in the test with SF-268 CNS is 27.1 µM; in the test with OVCAR-5 ovarian it was greater than 100 µM; in the test with HT29 colon it was 10.7 µM; in the test with HCT-15 colon, 3.81 µM. For the same compound, the TGI with SR leukemia was 45.2 µM; in the test on U251 CNS it was greater than 100 µM; with COLO 205 colon, greater than 100 µM; in the test with PC-3 prostate it was 33.1 µM; in the test with TK-10 renal, greater than 100 µM; in the test on SW-620 colon it was 77.2 µM. For the same compound, the TGI in the test with SF-268 CNS is 96.6 µM; in the test on OVCAR-5 ovarian, greater than 100 µM; in the test on HT29 colon, 42.4 µM; with HCT-15 colon, 31.8 µM.
Take `N#CSc1c[nH]c2cccc(/C=C/C(=O)/C=C(O)/C=C/c3cccc4[nH]cc(SC#N)c34)c12`: the GI50 in the test on SR leukemia is 0.129 µM; in the test with U251 CNS it was 0.185 µM; in the test on COLO 205 colon, 0.423 µM; in the test on PC-3 prostate, 0.136 µM; in the test on TK-10 renal it was 0.756 µM; in the test with SW-620 colon it was 0.151 µM. Besides, the GI50 in the test with SF-268 CNS is 0.528 µM; in the test with OVCAR-5 ovarian, 0.714 µM; with HT29 colon, 0.496 µM; with HCT-15 colon it was 0.186 µM. For the same compound, the TGI was greater than 33.3 µM in the test with SR leukemia; 1.14 µM in the test on U251 CNS; 1.07 µM in the test with COLO 205 colon; 1.77 µM in the test on PC-3 prostate; 2.51 µM with TK-10 renal; 0.555 µM with SW-620 colon. For the same compound, the TGI in the test on SF-268 CNS worked out at 1.86 µM; with OVCAR-5 ovarian it was 2.04 µM; in the test on HT29 colon, 2.05 µM; with HCT-15 colon, 0.895 µM.
As for `CCOc1ccc(-c2nc3ccc(-c4nc5ccc(N6CCN(C)CC6)cc5[nH]4)cc3[nH]2)cc1OCC`, the GI50 in the test on SR leukemia is 0.678 µM; in the test with U251 CNS, 1.32 µM; with COLO 205 colon, 0.322 µM; in the test on PC-3 prostate, 1.42 µM; in the test on TK-10 renal, 6.22 µM; in the test with SW-620 colon, 0.796 µM. Besides, the GI50 is 1.85 µM with SF-268 CNS, 4.37 µM in the test on OVCAR-5 ovarian, 2.6 µM in the test on HT29 colon and 15 µM in the test on HCT-15 colon. The TGI is 7.78 µM in the test on SR leukemia; 6.71 µM in the test on U251 CNS; 2 µM in the test with COLO 205 colon; 10.4 µM with PC-3 prostate; 38.9 µM in the test on TK-10 renal; 2.89 µM with SW-620 colon. Further, the TGI was 6.9 µM in the test on SF-268 CNS, 14.2 µM in the test with OVCAR-5 ovarian, 12.1 µM in the test on HT29 colon and greater than 100 µM in the test on HCT-15 colon.
Turning to `CC/C(=C\c1ccc(N(C)C)cc1)c1ccncc1`, the GI50 is 3.24 µM in the test with SR leukemia; 4.82 µM in the test on U251 CNS; 3.94 µM with COLO 205 colon; 10.3 µM in the test with PC-3 prostate; 12.9 µM in the test on TK-10 renal; 4.04 µM with SW-620 colon. The GI50 is 11.2 µM in the test with SF-268 CNS, 33 µM in the test on OVCAR-5 ovarian, 4.43 µM in the test with HT29 colon and 2.82 µM in the test with HCT-15 colon. Besides, the TGI was 30.1 µM in the test on SR leukemia; 48.7 µM in the test on U251 CNS; 21.1 µM with COLO 205 colon; greater than 100 µM in the test with PC-3 prostate; greater than 100 µM with TK-10 renal; greater than 100 µM in the test with SW-620 colon. Also, the TGI in the test with SF-268 CNS, in the test on OVCAR-5 ovarian, in the test with HT29 colon and with HCT-15 colon was greater than 100 µM throughout.
Consider `C=CN(C(=O)N1CCN(c2cc3c(cc2F)c(=O)c(C(=O)O)cn3C2CC2)CC1)c1nc(-c2ccc(C)cc2)cs1`, for which the GI50 in the test on SR leukemia was 2.15 µM; with U251 CNS, 3.39 µM; in the test with COLO 205 colon, 2.09 µM; in the test on PC-3 prostate, 0.376 µM; with TK-10 renal, 3.89 µM; in the test with SW-620 colon, 4.5 µM. Also, the GI50 in the test with SF-268 CNS was 4.02 µM; with OVCAR-5 ovarian, 4.14 µM; in the test on HT29 colon, 3.31 µM; in the test with HCT-15 colon it was 2.96 µM. Also, the TGI in the test on SR leukemia was greater than 100 µM; with U251 CNS, 11.6 µM; in the test on COLO 205 colon it was 4.72 µM; with PC-3 prostate, 6.52 µM; in the test with TK-10 renal, greater than 100 µM; in the test on SW-620 colon it was greater than 100 µM. For the same compound, the TGI with SF-268 CNS, in the test on OVCAR-5 ovarian, with HT29 colon and in the test on HCT-15 colon was greater than 100 µM each time.
As to `Nc1nc(N)c2nc(CNc3ccc(C(=O)NC(CCC(=O)O)C(=O)O)cc3)cnc2n1` (centres undefined), the GI50 with SR leukemia was less than 0.01 µM; in the test on U251 CNS, 0.0468 µM and < 0.0107 µM; with PC-3 prostate it was less than 0.01 µM; with TK-10 renal it was 0.0736 µM; in the test with SW-620 colon, less than 0.01 µM; in the test on SF-268 CNS, 0.02 µM and < 0.01 µM. In addition, the GI50 was 0.0373 µM and 0.0307 µM in the test on OVCAR-5 ovarian; less than 0.01 µM in the test on HT29 colon; 0.0422 µM and < 0.01 µM in the test with HCT-15 colon. The TGI with SR leukemia, in the test with U251 CNS, in the test on COLO 205 colon, in the test on PC-3 prostate, in the test with TK-10 renal and in the test with SW-620 colon was greater than 100 µM each time. Further, the TGI in the test on SF-268 CNS, in the test on OVCAR-5 ovarian, in the test on HT29 colon and with HCT-15 colon was greater than 100 µM in each case.
